The record followed here is ChEMBL document CHEMBL1201862, “PubChem BioAssay data set” (2004).

Among the test systems are HOP-92; UACC-62; MDA-MB-231; A498; NCI-H226; K562; COLO 205; SNB-75; ACHN; OVCAR-3; TK-10; HL-60; DU-145; HCT-15; IGROV-1; UO-31; Hs-578T; KM12; RPMI-8226; SR.
Holding throughout (experiment): inhibition of tumour cell growth, NCI panel, 48 h

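How tested: cells in 96-well plates exposed to compound for 48 hours at five concentrations. Here, GI50 denotes the concentration required for 50% inhibition of growth.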 Calls of active or inactive are those of the source. Rule as the data show it: active = GI50 up to about 1.1 µM and inactive = higher.

In the case of `C1CC2CN(CCCN3CCOCC3)C(C1)O2` (configuration not stated), the GI50 with HOP-92, in the assay on UACC-62, with MDA-MB-231, in the assay on A498, in the assay on NCI-H226 and with K562 was > 100 µM (inactive) throughout. The GI50 in the assay with COLO 205, with SNB-75, with ACHN, in the assay with OVCAR-3, in the assay with TK-10 and in the assay on HL-60 was > 100 µM (inactive) throughout. The GI50 is > 100 µM (inactive) with DU-145; greater than 100 µM with HCT-15; > 100 µM (inactive) in the assay on IGROV-1; > 100 µM (inactive) in the assay on UO-31; > 100 µM (inactive) with Hs-578T; > 100 µM (inactive) with KM12. Moreover, the GI50 in the assay with RPMI-8226 was > 100 µM (inactive).

Consider `C=CCOCn1ccc(N)nc1=O`, for which the GI50 with UACC-62, in the assay on MDA-MB-231, in the assay with NCI-H226, in the assay on K562, in the assay with COLO 205 and with SNB-75 was > 100 µM (inactive) throughout. In addition, the GI50 with TK-10 was > 100 µM (inactive); with HL-60 it was > 100 µM (inactive); with DU-145, > 100 µM (inactive); with HCT-15 it was greater than 100 µM; in the assay on IGROV-1 it was > 100 µM (inactive); with UO-31, > 100 µM (inactive). Moreover, the GI50 in the assay with Hs-578T, with KM12, with SR and in the assay with RPMI-8226 was > 100 µM (inactive) in each case.

Consider `O=C1c2ccccc2C(=O)N1CCc1nc(-c2ccccc2)c[nH]1`, for which the GI50 with UACC-62, with MDA-MB-231, with A498, in the assay with NCI-H226, in the assay with K562 and in the assay with COLO 205 was > 100 µM (inactive) throughout. In addition, the GI50 with SNB-75, with ACHN, in the assay with OVCAR-3, in the assay with TK-10, in the assay on HL-60 and with DU-145 was > 100 µM (inactive) each time. For the same compound, the GI50 with HCT-15 was greater than 100 µM; in the assay with IGROV-1, > 100 µM (inactive); with UO-31, > 100 µM (inactive); in the assay on Hs-578T, > 100 µM (inactive); with KM12, > 100 µM (inactive); with SR, > 100 µM (inactive).

Regarding `C/C(=N\c1ccc(N(C)C)cc1)c1ccccc1`, the GI50 is 17.1 µM (inactive) in the assay on UACC-62; 18.3 µM (inactive) with MDA-MB-231; > 100 µM (inactive) with A498; 76.2 µM (inactive) in the assay on NCI-H226; 21.3 µM (inactive) in the assay on K562; 17.8 µM (inactive) in the assay on COLO 205. Further, the GI50 is 22.8 µM (inactive) in the assay with SNB-75; 26.2 µM (inactive) in the assay on ACHN; 17.8 µM (inactive) in the assay with OVCAR-3; 20.8 µM (inactive) in the assay with TK-10; 16.4 µM (inactive) in the assay with HL-60; 34.9 µM (inactive) in the assay with DU-145. In addition, the GI50 in the assay on HCT-15 is 18.5 µM; in the assay on IGROV-1, 25.7 µM (inactive); with UO-31, 17.8 µM (inactive); in the assay with Hs-578T it was 22.1 µM (inactive); in the assay with KM12 it was 31.8 µM (inactive); with SR it was 19.2 µM (inactive).

Consider `Nc1nc2c(C(=O)O)c3ccc([N+](=O)[O-])cc3c(=O)n2c2ccccc12`, for which the GI50 is 28.1 µM (inactive) in the assay with UACC-62; 24.9 µM (inactive) in the assay on MDA-MB-231; 43.7 µM (inactive) with A498; 21.2 µM (inactive) with NCI-H226; 19.5 µM (inactive) in the assay on K562; 34.8 µM (inactive) in the assay on COLO 205. For the same compound, the GI50 in the assay on SNB-75 is 3.44 µM (inactive); with ACHN it was 33.1 µM (inactive); in the assay on OVCAR-3, 21.1 µM (inactive); in the assay with HL-60, 32.1 µM (inactive); with DU-145, 16.5 µM (inactive); in the assay with HCT-15 it was 22.9 µM. Moreover, the GI50 in the assay on IGROV-1 was 26.9 µM (inactive); in the assay on UO-31, 29.8 µM (inactive); with Hs-578T it was 23.8 µM (inactive); in the assay on KM12 it was 25.8 µM (inactive); in the assay on SR, 24.3 µM (inactive); in the assay with RPMI-8226 it was 27.5 µM (inactive).

On to `CN(C)c1ccc(/N=N/c2ccc3[nH]cnc3c2)cc1`, for which the GI50 is 24.8 µM (inactive) in the assay with UACC-62; 15.1 µM (inactive) with MDA-MB-231; 20.4 µM (inactive) with A498; 34 µM (inactive) in the assay on NCI-H226; 19.5 µM (inactive) in the assay on K562; 19.3 µM (inactive) in the assay on COLO 205. Further, the GI50 in the assay with SNB-75 is 31.6 µM (inactive); in the assay on ACHN it was 19 µM (inactive); with TK-10, 22.5 µM (inactive); in the assay with HL-60, 14.7 µM (inactive); with DU-145 it was 27.4 µM (inactive); in the assay with HCT-15 it was 22.1 µM. The GI50 with IGROV-1 was 34.5 µM (inactive); in the assay on UO-31 it was 28.4 µM (inactive); in the assay with Hs-578T it was 34.7 µM (inactive); in the assay on KM12 it was 29.2 µM (inactive); in the assay on SR, 25.1 µM (inactive); in the assay on RPMI-8226 it was 19.5 µM (inactive).

Consider `COC(=O)/C=c1/c2ccccc2n2nc3ccccc3c12`, for which the GI50 is 70.8 µM (inactive) with UACC-62; 16.4 µM (inactive) in the assay on MDA-MB-231; 26.2 µM (inactive) in the assay on A498; 51.4 µM (inactive) with K562; 27.6 µM (inactive) in the assay on COLO 205; > 100 µM (inactive) in the assay on ACHN. Besides, the GI50 with OVCAR-3 is > 100 µM (inactive); in the assay with TK-10, 31.6 µM (inactive); in the assay on HL-60, 45 µM (inactive); in the assay with DU-145 it was > 100 µM (inactive); in the assay on HCT-15 it was 77.1 µM; in the assay on IGROV-1 it was > 100 µM (inactive). The GI50 in the assay with UO-31 is 62.2 µM (inactive); in the assay on Hs-578T, 52 µM (inactive); in the assay with KM12, 27.5 µM (inactive); in the assay on SR, 4.03 µM (inactive); with RPMI-8226, 18.4 µM (inactive).

`Cc1ccc(-c2cc(C(F)(F)F)nn2-c2ccc(S(N)(=O)=O)cc2)cc1` [CELECOXIB]: the GI50 is 15.4 µM (inactive) with UACC-62; 15.6 µM (inactive) in the assay with MDA-MB-231; 15.1 µM (inactive) with A498; 10.1 µM (inactive) with K562; 16.1 µM (inactive) in the assay with COLO 205; 15.6 µM (inactive) with SNB-75. Also, the GI50 in the assay with ACHN was 17.5 µM (inactive); in the assay with OVCAR-3, 17.6 µM (inactive); in the assay on TK-10, 18.8 µM (inactive); with HL-60, 14.8 µM (inactive); in the assay with DU-145, 16.3 µM (inactive); with HCT-15 it was 15.9 µM. The GI50 in the assay with IGROV-1 was 15.4 µM (inactive); in the assay with UO-31 it was 14.8 µM (inactive); in the assay with Hs-578T it was 18.5 µM (inactive); in the assay with KM12 it was 15.1 µM (inactive); in the assay on SR, 16.1 µM (inactive); in the assay with RPMI-8226, 3.85 µM (inactive).
